The supplement of paper PMC8149375
Blank lines part the entries; values can stand above or below the molecule they belong to.

Assays:
Conditions in all cases: treatment: drug + dasatinib (fixed dose, not stated); 5 days
[1] = system: 769-P; assay: GI50 of drug in presence of dasatinib; higher = less potent
Protocol: (§1)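 Primary HTS combination arm: 8 RCC cell lines treated with 8 doses (up to 10 uM) of each library drug plus a fixed dose of dasatinib (dose not stated) for 5 days; viability read by CellTiter-Glo and normalised to DMSO. GI50 was fitted with XLfit, AUC is the area under the dose-response curve, and minimum viability is the lowest fraction of DMSO viability across doses.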

[2] = system: 786-O; assay: as above
Protocol: as §1

[3] = system: A498; assay: as above
Protocol: as §1

[4] = system: ACHN; assay: as above
Protocol: as §1

[5] = system: CAKI-1; assay: as above
Protocol: as §1

[6] = system: SN12C; assay: as above
Protocol: as §1

[7] = system: TK-10; assay: as above
Protocol: as §1

[8] = system: UO-31; assay: as above
Protocol: as §1

[9] = system: 769-P; assay: minimum viability across doses, drug + dasatinib, relative to DMSO (fraction); higher = less growth inhibition
Protocol: as §1

[10] = system: 786-O; assay: as above
Protocol: as §1

[11] = system: A498; assay: as above
Protocol: as §1

[12] = system: ACHN; assay: as above
Protocol: as §1

[13] = system: CAKI-1; assay: as above
Protocol: as §1

[14] = system: SN12C; assay: as above
Protocol: as §1

[15] = system: TK-10; assay: as above
Protocol: as §1

[16] = system: UO-31; assay: as above
Protocol: as §1

[17] = system: 769-P; assay: AUC of dose-response viability curve, drug + dasatinib, normalised to DMSO (arbitrary (AUC of normalised viability)); higher = less growth inhibition
Protocol: as §1

[18] = system: 786-O; assay: as above
Protocol: as §1

[19] = system: A498; assay: as above
Protocol: as §1

[20] = system: ACHN; assay: as above
Protocol: as §1

[21] = system: CAKI-1; assay: as above
Protocol: as §1

[22] = system: SN12C; assay: as above
Protocol: as §1

[23] = system: TK-10; assay: as above
Protocol: as §1

[24] = system: UO-31; assay: as above
Protocol: as §1

- GI50 of drug [2]: 48.7 nM
- GI50 of drug [4]: 48.8 nM
Compound: O=C(Nc1c[nH]nc1-c1nc2cc(CN3CCOCC3)ccc2[nH]1)NC1CC1 [AT9283] + Cc1nc(Nc2ncc(C(=O)Nc3c(C)cccc3Cl)s2)cc(N2CCN(CCO)CC2)n1 [dasatinib]
- GI50 of drug [1]: 128 nM
- GI50 of drug [3]: 633 nM
- GI50 of drug [5]: 134 nM
- GI50 of drug [6]: 672 nM
- GI50 of drug [7]: 253 nM
- GI50 of drug [8]: 306 nM
- minimum viability across doses [9]: 0.0379
- minimum viability across doses [10]: 0.00871
- minimum viability across doses [11]: 0.0108
- minimum viability across doses [12]: 0.0114
- minimum viability across doses [13]: 0.0645
- minimum viability across doses [14]: 0.00616
- minimum viability across doses [15]: 0.0526
- minimum viability across doses [16]: 0.0134
- AUC of dose-response viability curve [17]: 1.46
- AUC of dose-response viability curve [18]: 1.19
- AUC of dose-response viability curve [19]: 2.4
- AUC of dose-response viability curve [20]: 1.18
- AUC of dose-response viability curve [21]: 1.67
- AUC of dose-response viability curve [22]: 1.75
- AUC of dose-response viability curve [23]: 1.83
- AUC of dose-response viability curve [24]: 1.87

- GI50 of drug [2]: > 10000 nM
- GI50 of drug [4]: 146 nM
Compound: Cc1ccc(NC(=O)c2cccc(C(C)(C)C#N)c2)cc1Nc1ccc2ncn(C)c(=O)c2c1 [AZ628] + Cc1nc(Nc2ncc(C(=O)Nc3c(C)cccc3Cl)s2)cc(N2CCN(CCO)CC2)n1 [dasatinib]
- GI50 of drug [1]: 2470 nM
- GI50 of drug [3]: 6100 nM
- GI50 of drug [5]: 1120 nM
- GI50 of drug [6]: > 10000 nM
- GI50 of drug [7]: 1600 nM
- GI50 of drug [8]: 1580 nM
- minimum viability across doses [9]: 0.214
- minimum viability across doses [10]: 0.593
- minimum viability across doses [11]: 0.409
- minimum viability across doses [12]: 0.174
- minimum viability across doses [13]: 0.0806
- minimum viability across doses [14]: 0.348
- minimum viability across doses [15]: 0.311
- minimum viability across doses [16]: 0.0219
- AUC of dose-response viability curve [17]: 2.33
- AUC of dose-response viability curve [18]: 2.36
- AUC of dose-response viability curve [19]: 3.02
- AUC of dose-response viability curve [20]: 1.59
- AUC of dose-response viability curve [21]: 2.08
- AUC of dose-response viability curve [22]: 2.33
- AUC of dose-response viability curve [23]: 2.25
- AUC of dose-response viability curve [24]: 2.95

- GI50 of drug [2]: 197 nM
- GI50 of drug [4]: 123 nM
Compound: Cc1cc(Nc2nc(N[C@@H](C)c3ccc(F)cc3)c(C#N)cc2F)n[nH]1 [AZ 960] + Cc1nc(Nc2ncc(C(=O)Nc3c(C)cccc3Cl)s2)cc(N2CCN(CCO)CC2)n1 [dasatinib]
- GI50 of drug [1]: 442 nM
- GI50 of drug [3]: 987 nM
- GI50 of drug [5]: 146 nM
- GI50 of drug [6]: 651 nM
- GI50 of drug [7]: 882 nM
- GI50 of drug [8]: 496 nM
- minimum viability across doses [9]: 0.0281
- minimum viability across doses [10]: 0.00499
- minimum viability across doses [11]: 0.246
- minimum viability across doses [12]: 0.0473
- minimum viability across doses [13]: 0.00482
- minimum viability across doses [14]: 0.127
- minimum viability across doses [15]: 0.091
- minimum viability across doses [16]: 0.0082
- AUC of dose-response viability curve [17]: 1.77
- AUC of dose-response viability curve [18]: 1.41
- AUC of dose-response viability curve [19]: 2.64
- AUC of dose-response viability curve [20]: 1.48
- AUC of dose-response viability curve [21]: 1.43
- AUC of dose-response viability curve [22]: 1.91
- AUC of dose-response viability curve [23]: 2.17
- AUC of dose-response viability curve [24]: 2.11

The next lines start with the molecule.

Compound: C=CC(=O)Nc1ccc2ncnc(Nc3ccc(OCc4cccc(F)c4)c(Cl)c3)c2c1.Cc1ccc(S(=O)(=O)O)cc1 [AST-1306] + Cc1nc(Nc2ncc(C(=O)Nc3c(C)cccc3Cl)s2)cc(N2CCN(CCO)CC2)n1 [dasatinib]
- GI50 of drug [1]: 321 nM
- GI50 of drug [2]: 1110 nM
- GI50 of drug [3]: 9990 nM
- GI50 of drug [4]: 84.7 nM
- GI50 of drug [5]: 1680 nM
- GI50 of drug [6]: 5350 nM
- GI50 of drug [7]: 406 nM
- GI50 of drug [8]: 3170 nM
- minimum viability across doses [9]: 0.0288
- minimum viability across doses [10]: 0.0714
- minimum viability across doses [11]: 0.495
- minimum viability across doses [12]: 0.138
- minimum viability across doses [13]: 0.00665
- minimum viability across doses [14]: 0.0534
- minimum viability across doses [15]: 0.0976
- minimum viability across doses [16]: 0.06
- AUC of dose-response viability curve [17]: 1.82
- AUC of dose-response viability curve [18]: 1.99
- AUC of dose-response viability curve [19]: 3.44
- AUC of dose-response viability curve [20]: 1.62
- AUC of dose-response viability curve [21]: 2.04
- AUC of dose-response viability curve [22]: 2.22
- AUC of dose-response viability curve [23]: 2.01
- AUC of dose-response viability curve [24]: 3.51

Compound: Cc1cc2c(C(C)C)c(O)c(O)c(C=O)c2c(O)c1-c1c(C)cc2c(C(C)C)c(O)c(O)c(C=O)c2c1O [AT101] + Cc1nc(Nc2ncc(C(=O)Nc3c(C)cccc3Cl)s2)cc(N2CCN(CCO)CC2)n1 [dasatinib]
- GI50 of drug [1]: > 10000 nM
- GI50 of drug [2]: > 10000 nM
- GI50 of drug [3]: > 10000 nM
- GI50 of drug [4]: 1850 nM
- GI50 of drug [5]: 3350 nM
- GI50 of drug [6]: > 10000 nM
- GI50 of drug [7]: > 10000 nM
- GI50 of drug [8]: > 10000 nM
- minimum viability across doses [9]: 0.636
- minimum viability across doses [10]: 0.265
- minimum viability across doses [11]: 0.835
- minimum viability across doses [12]: 0.133
- minimum viability across doses [13]: 0.106
- minimum viability across doses [14]: 0.667
- minimum viability across doses [15]: 0.517
- minimum viability across doses [16]: 0.947
- AUC of dose-response viability curve [17]: 2.6
- AUC of dose-response viability curve [18]: 2.18
- AUC of dose-response viability curve [19]: 3.27
- AUC of dose-response viability curve [20]: 1.84
- AUC of dose-response viability curve [21]: 2.15
- AUC of dose-response viability curve [22]: 2.62
- AUC of dose-response viability curve [23]: 2.33
- AUC of dose-response viability curve [24]: 3.9

Compound: O=C(NC1CCNCC1)c1n[nH]cc1NC(=O)c1c(Cl)cccc1Cl [AT7519] + Cc1nc(Nc2ncc(C(=O)Nc3c(C)cccc3Cl)s2)cc(N2CCN(CCO)CC2)n1 [dasatinib]
- GI50 of drug [1]: 1130 nM
- GI50 of drug [2]: 218 nM
- GI50 of drug [3]: 337 nM
- GI50 of drug [4]: 271 nM
- GI50 of drug [5]: 347 nM
- GI50 of drug [6]: 435 nM
- GI50 of drug [7]: 610 nM
- GI50 of drug [8]: 864 nM
- minimum viability across doses [9]: 0.0219
- minimum viability across doses [10]: 0.00538
- minimum viability across doses [11]: 0.00778
- minimum viability across doses [12]: 0.00318
- minimum viability across doses [13]: 0.0385
- minimum viability across doses [14]: 0.00559
- minimum viability across doses [15]: 0.179
- minimum viability across doses [16]: 0.00867
- AUC of dose-response viability curve [17]: 2.02
- AUC of dose-response viability curve [18]: 1.52
- AUC of dose-response viability curve [19]: 2.2
- AUC of dose-response viability curve [20]: 1.44
- AUC of dose-response viability curve [21]: 1.64
- AUC of dose-response viability curve [22]: 1.59
- AUC of dose-response viability curve [23]: 2.09
- AUC of dose-response viability curve [24]: 2.79

Compound: Clc1ccc(C2(c3ccc(-c4cn[nH]c4)cc3)CCNCC2)cc1 [AT7867] + Cc1nc(Nc2ncc(C(=O)Nc3c(C)cccc3Cl)s2)cc(N2CCN(CCO)CC2)n1 [dasatinib]
- GI50 of drug [1]: 1690 nM
- GI50 of drug [2]: 577 nM
- GI50 of drug [3]: 8310 nM
- GI50 of drug [4]: 530 nM
- GI50 of drug [5]: 762 nM
- GI50 of drug [6]: 3460 nM
- GI50 of drug [7]: 1970 nM
- GI50 of drug [8]: 348 nM
- minimum viability across doses [9]: 0.124
- minimum viability across doses [10]: 0.00775
- minimum viability across doses [11]: 0.135
- minimum viability across doses [12]: 0.0726
- minimum viability across doses [13]: 0.094
- minimum viability across doses [14]: 0.192
- minimum viability across doses [15]: 0.0469
- minimum viability across doses [16]: 0.00689
- AUC of dose-response viability curve [17]: 2.16
- AUC of dose-response viability curve [18]: 1.85
- AUC of dose-response viability curve [19]: 3.22
- AUC of dose-response viability curve [20]: 1.69
- AUC of dose-response viability curve [21]: 1.96
- AUC of dose-response viability curve [22]: 2.43
- AUC of dose-response viability curve [23]: 2.49
- AUC of dose-response viability curve [24]: 2.34
